How the values were obtained:
eastern black nightshade = assay: Test C pre-/postemergence test; assay type: in vivo, Solanum ptycanthum
In short: (§1)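 Seeds were planted and treated preemergence with test chemical in a non-phytotoxic solvent mixture containing surfactant. Postemergence applications of the same formulation went onto plants 2 to 18 cm tall (1- to 4-leaf stage). A dash marks no test result.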

wheat = assay: Test C pre-/postemergence test; assay type: in vivo, Triticum aestivum; details: for Wheat plant response rating: preemergence, scale 0 (no effect) to 100 (complete control)
In short: as §1

crabgrass = assay: Test A pre-/postemergence greenhouse test; assay type: in vivo, Digitaria sanguinalis; details: for Crabgrass, Large plant response rating: 0 to 100 scale
In short: (§2)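 Seeds sown in a loam soil–sand blend got a preemergence directed soil spray of compound in a non-phytotoxic solvent mixture containing surfactant. Postemergence sprays of the same formulation went at the same time onto plants 2–10 cm tall at the one- to two-leaf stage. Injury was scored visually against untreated controls after about ten days in the greenhouse.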

morningglory = assay: Test A pre-/postemergence greenhouse test; assay type: in vivo, Ipomoea spp.; details: for Morningglory plant response rating: 0 to 100 scale
In short: as §2

common ragweed = assay: Test C pre-/postemergence test; assay type: in vivo, Ambrosia elation
In short: as §1

umbrella sedge = assay: Test C flooded paddy test; assay type: in vivo, Cyperus difformis; details: Flood
In short: (§3)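 Visual injury ratings against untreated controls, taken 13 to 15 days after compound was added to paddy water standing 3 cm above the soil.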

redroot pigweed = assay: Test A pre-/postemergence greenhouse test; assay type: in vivo, Amaranthus retroflexus; details: for Pigweed plant response rating: 0 to 100 scale
In short: as §2

green foxtail = assay: Test C pre-/postemergence test; assay type: in vivo, Setaria viridis
In short: as §1

Italian ryegrass = assay: Test C pre-/postemergence test; assay type: in vivo, Lolium multiflorum
In short: as §1

woolly cupgrass = assay: Test C pre-/postemergence test; assay type: in vivo, Eriochloa villosa
In short: as §1

Goosegrass = assay: Test C pre-/postemergence test; assay type: in vivo, Eleusin indica
In short: as §1

blackgrass = assay: Test C pre-/postemergence test; assay type: in vivo, Alopecurus myosuroides
In short: as §1

wild oat = assay: Test C pre-/postemergence test; assay type: in vivo, Avena fatua
In short: as §1

[1] = tested on: common (oilseed) sunflower; assay: Test C pre-/postemergence test; assay type: in vivo, Helianthus annuus; details: for Sunflower plant response rating: preemergence, scale 0 (no effect) to 100 (complete control)
In short: as §1

yellow nutsedge = assay: Test C pre-/postemergence test; assay type: in vivo, Cyperus esculentus
In short: as §1

corn = assay: Test C pre-/postemergence test; assay type: in vivo, Zea mays
In short: as §1

duck salad = assay: Test C flooded paddy test; assay type: in vivo, Heteranthera limosa; details: Flood
In short: as §3

[2] = 31 g ai/ha, Preemergence, scale 0 to 100
[3] = 62 g ai/ha, preemergence, scale 0 (no effect) to 100 (complete control)
[4] = preemergence, 125 g ai/ha, scale 0 (no effect) to 100 (complete control)
[5] = Postemergence, 125 g ai/ha, 0 is no effect, 100 is complete control
[6] = Postemergence, 500 g ai/ha, 0 is no effect, 100 is complete control
[7] = Preemergence, 125 g ai/ha, 0 no effect, 100 complete control
[8] = Preemergence, 500 g ai/ha, 0 to 100 scale where 0 is no effect and 100 is complete control
[9] = 31 g ai/ha, scale 0 to 100 (0 no effect, 100 complete control)
[10] = 62 g ai/ha, scale 0 to 100, 0 no effect, 100 complete control, 13 to 15 days
[11] = 125 g ai/ha, scale 0 to 100, 0 no effect, 100 complete control, 13 to 15 days
[12] = 250 g ai/ha, scale 0 to 100 (0 no effect, 100 complete control)

Cc1cc[n+]([O-])c(S(=O)(=O)C(C)c2c(C(F)(F)F)nn(C)c2OC(F)F)c1 (stereo not drawn) [Compound 11]
Nightshade plant response rating (eastern black nightshade; [2]): 95
Nightshade plant response rating (eastern black nightshade; [3]): 100
Plant response rating (0 to 100), Nightshade (eastern black nightshade; Preemergence, 250 g ai/ha): 100
Nightshade plant response rating (eastern black nightshade; [4]): 100
Wheat plant response rating (wheat; 62 g ai/ha): 20
Plant response rating (0 to 100), Wheat (wheat; Preemergence, 250 g ai/ha): 85
Wheat plant response rating (wheat; 125 g ai/ha): 80
Crabgrass, Large plant response rating (crabgrass; [5]): 70
Crabgrass, Large plant response rating (crabgrass; [6]): 80
Crabgrass, Large plant response rating (crabgrass; [7]): 90
Plant response rating, Crabgrass, Large (crabgrass; [8]): 100
Morningglory plant response rating (morningglory; [5]): 40
Morningglory plant response rating (morningglory; [6]): 50
Morningglory plant response rating (morningglory; [7]): 60
Plant response rating, Morningglory (morningglory; [8]): 90
Ragweed plant response rating (common ragweed; [2]): 55
Ragweed plant response rating (common ragweed; [3]): 75
Plant response rating (0 to 100), Ragweed (common ragweed; Preemergence, 250 g ai/ha): 100
Ragweed plant response rating (common ragweed; [4]): 95
Plant response rating, Sedge, Umbrella (umbrella sedge; [9]): 0
Plant response rating, Sedge, Umbrella (umbrella sedge; [10]): 90
Plant response rating, Sedge, Umbrella (umbrella sedge; [11]): 90
Plant response rating, Sedge, Umbrella (umbrella sedge; [12]): 90
Pigweed plant response rating (redroot pigweed; [5]): 10
Pigweed plant response rating (redroot pigweed; [6]): 60
Pigweed plant response rating (redroot pigweed; [7]): 100
Plant response rating, Pigweed (redroot pigweed; [8]): 100
Foxtail, Green plant response rating (green foxtail; [2]): 80
Foxtail, Green plant response rating (green foxtail; [3]): 100
Plant response rating (0 to 100), Foxtail, Green (green foxtail; Preemergence, 250 g ai/ha): 100
Foxtail, Green plant response rating (green foxtail; [4]): 100
Ryegrass, Italian plant response rating (Italian ryegrass; [2]): 0
Ryegrass, Italian plant response rating (Italian ryegrass; [3]): 40
Plant response rating (0 to 100), Ryegrass, Italian (Italian ryegrass; Preemergence, 250 g ai/ha): 80
Ryegrass, Italian plant response rating (Italian ryegrass; [4]): 70
Cupgrass, Woolly plant response rating (woolly cupgrass; [2]): 60
Cupgrass, Woolly plant response rating (woolly cupgrass; [3]): 80
Plant response rating (0 to 100), Cupgrass, Woolly (woolly cupgrass; Preemergence, 250 g ai/ha): 100
Cupgrass, Woolly plant response rating (woolly cupgrass; [4]): 85
Goosegrass plant response rating (Goosegrass; [2]): 100
Goosegrass plant response rating (Goosegrass; [3]): 100
Plant response rating (0 to 100), Goosegrass (Goosegrass; Preemergence, 250 g ai/ha): 100
Goosegrass plant response rating (Goosegrass; [4]): 100
Blackgrass plant response rating (blackgrass; [2]): 0
Blackgrass plant response rating (blackgrass; [3]): 0
Plant response rating (0 to 100), Blackgrass (blackgrass; Preemergence, 250 g ai/ha): 90
Blackgrass plant response rating (blackgrass; [4]): 90
Oat, Wild plant response rating (wild oat; [2]): 0
Oat, Wild plant response rating (wild oat; [3]): 0
Plant response rating (0 to 100), Oat, Wild (wild oat; Preemergence, 250 g ai/ha): 80
Oat, Wild plant response rating (wild oat; [4]): 20
Sunflower plant response rating ([1]; 62 g ai/ha): 30
Plant response rating (0 to 100), Sunflower ([1]; Preemergence, 250 g ai/ha): 98
Sunflower plant response rating ([1]; 125 g ai/ha): 98
Nutsedge, Yellow plant response rating (yellow nutsedge; [2]): 70
Nutsedge, Yellow plant response rating (yellow nutsedge; [3]): 98
Plant response rating (0 to 100), Nutsedge, Yellow (yellow nutsedge; Preemergence, 250 g ai/ha): 100
Nutsedge, Yellow plant response rating (yellow nutsedge; [4]): 100
Corn plant response rating (corn; [2]): 0
Corn plant response rating (corn; [3]): 50
Plant response rating (0 to 100), Corn (corn; Preemergence, 250 g ai/ha): 98
Corn plant response rating (corn; [4]): 98
Plant response rating, Ducksalad (duck salad; [9]): 0
Plant response rating, Ducksalad (duck salad; [10]): 65
Plant response rating, Ducksalad (duck salad; [11]): 85
Plant response rating, Ducksalad (duck salad; [12]): 90

Source: patent US20100298141A1, “SUBSTITUTED PYRIDINE N-OXIDE HERBICIDES” (E. I. DU PONT DE NEMOURS AND COMPANY, priority 2007, published 2010)
